# Test results: patent US9193951B2, “Differentiation method for production of glial cell populations” (Case Western Reserve University, priority 2010, dated 2015)
# B1: BMP4: bone morphogenetic protein 4, ligand of the TGF beta superfamily (protein, UniProt P12644 293-408, looked up)
# Bone morphogenetic protein 4: SPKHHSQRARKKNKNCRRHSLYVDFSDVGWNDWIVAPPGYQAFYCHGDCPFPLADHLNSTNHAIVQTLVNSVNSSIPKACCVPTELSAISMLYLDEYDKVVLKNYQEMVVEGCGCR
# B2: noggin: a BMP antagonist; secreted polypeptide encoded by the NOG gene (protein, UniProt Q13253 28-232, looked up)
# Noggin: QHYLHIRPAPSDNLPLVDLIEHPDPIFDPKEKDLNETLLRSLLGGHYDPGFMATSPPEDRPGGGGGAAGGAEDLAELDQLLRQRPSGAMPSEIKGLEFSEGLAQGKKQRLSKKLRRKLQMWLWSQTFCPVLYAWNDLGSRFWPRYVKVGSCFSKRSCSVPEGMVCKPSKSVHLTVLRWRCQRRGGQRCGWIPIQYPIISECKCSC
# Columns and labels:
# Assay type in all cases: cell-based, mice
# [1] = system: EpiSC-derived OPCs; assay: Differentiation of EpiSC-derived OPCs into oligodendrocytes; settings: day 2 of differentiation, absence of FGF2 and PDGF-AA, n>480 cells
# Protocol: (§1) For differentiation of OPCs into oligodendrocytes, cells were plated at 2.2×10^4 cells cm^−2 and induced with neural base medium supplemented with 0.4 ng ml^−1 T3 (Sigma-Aldrich, St. Louis, Mo.), 200 ng ml^−1 SHH, 100 ng ml^−1 noggin, 10 μM dibutyryl cyclic-AMP sodium salt, 100 ng ml^−1 IGF-1 and 10 ng ml^−1 NT3. Attempts to modulate the outcome of this differentiation paradigm included treatments with Jag1 (R&D Systems, Minneapolis, Minn.), CHIR99021 (Stemgent, San Diego, Calif.), LIF (Millipore, Billerica, Mass.) and/or BMP4 (R&D Systems, Minneapolis, Minn.).
# Live-cell staining was used for the cell-surface marker O4. Live cells were blocked with 10% normal goat serum and treated with O4 antibody for 20 min at 37° C. Cells were gently rinsed three times with warm neural base medium and fixed in 4% paraformaldehyde. […]
# To determine the differentiation capacity of the EpiSC-derived OPCs, the EpiSc-derived OPCs were treated with thyroid hormone (T3), which is known to be important both in vitro and in vivo in regulating the transition of OPCs into oligodendrocytes, in the absence of both FGF2 and PDGF-AA. […] By day 4, the overwhelming majority of EpiSC-derived OPCs had become oligodendrocytes, though cell death and rare proliferation events made exact quantification challenging without large-scale time-lapse lineage analysis. […]
# [2] = system: EpiSC-derived OPCs; assay: Modulation of OPC differentiation by extrinsic factors in T3 differentiation medium
# Protocol: as §1
# Next, the ability of extrinsic factors to modulate the differentiation of Epi-SC-derived OPCs was explored. […] As a simple proof-of-principle for using the system to screen for compounds, EpiSC-derived OPCs were exposed to three different treatment regimens involving modulation of signaling pathways (Notch, Wnt-β-catenin and BMP) previously implicated in oligodendrocyte development or differentiation. […] Using a similar protocol, the role of GSK3β, a negative regulator of Wnt-β-catenin signaling, was tested by treating EpiSC-derived OPCs with the GSK3β inhibitor CHIR99021.
# [3] = system: EpiSC-derived OPCs; assay: Respecification of EpiSC-derived OPCs into astrocytes; settings: combined treatment with BMP4 and LIF; majority of cells
# Protocol: as §1
# The final treatment involved exposure of EpiSC-derived OPCs to signaling cascades known to respecify OPCs in vitro into an alternate glial fate, astrocytes.
# [4] = system: EpiSC-derived patterned neuroectoderm; assay: Region-specific patterning of EpiSC-derived neuroectoderm; settings: Day-4 neuroectoderm treated 1 day with retinoic acid and SHH in continued presence of noggin (combined)
# Protocol: On day 4, cultures were fed with neural base medium supplemented with 100 ng ml^−1 noggin, 10 μM retinoic acid (Sigma-Aldrich, St. Louis, Mo.; maintained as a 20 mM stock solution in DMSO) and 200 ng ml^−1 SHH (R&D Systems; C24II). To test whether the induced patterned neuroectoderm behaved as un-induced neuroectoderm behaves, the induced EpiSC-derived patterned neuroectoderm were patterned in a region-specific manner. […] Day-4 EpiSC-derived patterned neuroectoderm was treated for 1 day with specific concentrations of retinoic acid and SHH in the continued presence of noggin to pattern them in a region-specific way.
molecule,measurement,setting,value
"N[C@@H](Cc1cc(I)c(Oc2ccc(O)c(I)c2)c(I)c1)C(=O)O [T3, triiodothyronine]",cells strongly O4+ with multiprocessed morphology,[1],greater than 64%
Cc1c[nH]c(-c2cnc(NCCNc3ccc(C#N)cn3)nc2-c2ccc(Cl)cc2Cl)n1 [CHIR99021],expression of mature oligodendrocyte markers,"[2]; FIG. 5, treatment of OPCs",suppression
same,oligodendrocyte differentiation (progression of Olig2+ OPCs to O4+ oligodendrocytes),"[2]; T3 differentiation medium, FIG. 5",concentration-dependent inhibition
Jagged1: the Notch ligand Jagged1 (Jag1),rate or number of O4+ oligodendrocytes,"[2]; 2 days, T3 differentiation medium",did not impact
"LIF: leukemia inhibitory factor, activator of JAK/STAT pathways",respecification into astrocytes (morphological and gene expression changes),[3],upregulation of GFAP
B1,respecification into astrocytes (morphological and gene expression changes),[3],upregulation of GFAP
B2,expression of OPC-relevant transcription factors Olig2 and Nkx2.2,[4],upregulation
